{"source": "patent US20230380460A1", "about": "(priority 2020, published 2023)", "type_in_all_cases": "cell-based", "key": {"[1]": {"tested_on": "total flora (total plate count)", "test": "Spoilage analysis of cooked emulsified sausage: total plate count", "details": "cooked emulsified sausage during storage", "method": "(§1) A part was inoculated on surface with Listeria monocytogenes for the challenge test and the other part was kept safe for shelf life microbiological study as well as organoleptic and physical characterization. Cooked emulsified sausages were then stored in vacuum packaging.\n(§2) Microbiological analysis was performed according to current standard EC regulation 2073/2005, at d0 after packaging, several days during the storage (from D4 to D7 or D14 according to the studies).\n(§3) For cooked emulsified sausage, 14 days of shelf-life with 7 days of storage at 4° C. and 7 days at 8° C., to simulate a break in the cold chain (standardized method NF V01-003).\n(§4) Group of microorganisms counts performed are listed below: • Total plate count (NF EN ISO 4833-1), • Lactic acid bacteria (NF ISO 15214) both mesophilic and psychotrophic • Enterobacteriaceace (ISO 21528-2), • Pseudomonas sp. (EN ISO 13720), • Brochothrix thermosphacta • Anaerobic enumeration of sulfito-reducing bacteria (NF V08-061), • Challenge test Listeria monocytogenes (NF-EN ISO 11290-2). • Challenge test Salmonella (NF-EN ISO 6579-1)."}, "lactic flora": {"tested_on": "lactic flora", "test": "Spoilage analysis of cooked emulsified sausage: lactic flora", "details": "cooked emulsified sausage during storage", "method": "as §1, §2, §3, §4"}, "Listeria monocytogenes": {"tested_on": "Listeria monocytogenes", "details": "fresh ground sausage, d8"}}, "data": [{"substance": "lactate", "values": [{"measurement": "Growth of total flora", "setting": "[1]", "result": "normal growth"}, {"measurement": "Growth of lactic flora", "setting": "lactic flora", "result": "normal growth"}, {"measurement": "Δ log cfu/g of Listeria growth versus untreated control", "setting": "Listeria monocytogenes", "result": "−0.9", "unit": "log cfu/g"}]}]}
